Values after ≈ are worked out from the molar mass of the structure shown.
Key:
[1] = system: Mycobacterium tuberculosis; experiment: Antimycobacterial activity against Mycobacterium tuberculosis H37Rv by broth dilution method; format: functional
[2] = system: Mycobacterium tuberculosis; experiment: Antimycobacterial activity against Mycobacterium tuberculosis H37Rv by Alamar Blue assay; format: functional
[3] = molecular target: T1, Phosphotyrosine protein phosphatase (Mycobacterium tuberculosis, UniProt A0A045ISB3); experiment: Inhibition of Mycobacterium tuberculosis Protein Tyrosine Phosphatase B
T1 sequence (A0A045ISB3 whole entry): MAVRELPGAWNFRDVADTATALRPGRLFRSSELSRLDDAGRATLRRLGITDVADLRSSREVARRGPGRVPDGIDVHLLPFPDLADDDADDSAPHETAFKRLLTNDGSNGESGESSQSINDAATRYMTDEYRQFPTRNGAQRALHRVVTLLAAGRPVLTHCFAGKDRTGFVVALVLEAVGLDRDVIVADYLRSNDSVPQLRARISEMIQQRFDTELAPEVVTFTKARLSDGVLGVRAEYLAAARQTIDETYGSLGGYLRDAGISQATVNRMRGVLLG

[4] = system: Mycolicibacterium smegmatis; experiment: Antimycobacterial activity against Mycobacterium smegmatis MC2 155 by broth dilution method; format: functional
[5] = system: Mycobacterium tuberculosis; experiment: Antimycobacterial activity against Mycobacterium tuberculosis H37Rv; format: functional, organism-based
[6] = molecular target: T2, Enoyl-[acyl-carrier-protein] reductase [NADH] (Mycobacterium tuberculosis) (UniProt P9WGR1); experiment: Inhibition of Mycobacterium tuberculosis InhA enzyme at 10 uM relative to control
T2 sequence (whole entry): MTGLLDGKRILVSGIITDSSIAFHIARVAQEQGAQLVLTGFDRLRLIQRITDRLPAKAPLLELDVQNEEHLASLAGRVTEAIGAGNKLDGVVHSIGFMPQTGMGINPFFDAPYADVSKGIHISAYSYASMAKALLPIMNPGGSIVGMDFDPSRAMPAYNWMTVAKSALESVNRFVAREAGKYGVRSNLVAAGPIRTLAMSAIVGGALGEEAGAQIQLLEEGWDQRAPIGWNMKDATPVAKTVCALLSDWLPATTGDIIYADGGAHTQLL

[7] = system: Mycolicibacterium smegmatis; experiment: Antimycobacterial activity against Mycobacterium smegmatis; format: functional
[8] = system: Mycobacterium tuberculosis; experiment: Antimycobacterial activity against Mycobacterium tuberculosis H37Ra; format: functional
[9] = Inhibition of Mycobacterium PknG
[10] = system: Mycobacterium tuberculosis; experiment: Antimycobacterial activity against Mycobacterium tuberculosis H37Rv ATCC 27294 by Alamar Blue staining-based broth microdilution assay; format: functional
[11] = system: Mycobacterium tuberculosis; experiment: Antimycobacterial activity against Mycobacterium tuberculosis H37Rv assessed as inhibition of mycobacterial growth at 12 ug/ml relative to control; format: functional
[12] = system: Mycobacterium tuberculosis; experiment: Antimycobacterial activity against Mycobacterium tuberculosis incubated for overnight by NCCLS broth dilution method; format: functional
[13] = system: Mycobacterium tuberculosis; experiment: Antimycobacterial activity against Mycobacterium tuberculosis assessed as diameter of inhibition zone at 40 ug/disc; format: functional; conditions: read-out: IZ

In the case of `C=CC(C)(C)n1cc(C[C@@H]2NC(=O)[C@H](C/C=C/C)NC(=O)[C@H](CC(C)C)N3C(=O)[C@H](C[C@H](C)[C@@H]3O)N(C)C(=O)[C@H](C)NC(=O)[C@H](Cc3ccc(O)c([N+](=O)[O-])c3)NC(=O)[C@H](CC(C)C)N(C)C2=O)c2ccccc21`, the MIC [1] is reported as 0.0098 µM (≈ 0.0101 µg/mL).

In the case of `C[C@@H]1C[C@H](C)C(=O)/C=C/[C@@H]2[C@@H](O)[C@H]3OC4=C(C(=O)O[C@@]42C[C@H]3C)C1=O` (stereo in doubt; (+)-145), the MIC [2] is reported as 7.2 µM (≈ 2.49 µg/mL).

`CC(=O)c1cc(C)c(O)c(Cc2c(O)cc(-c3ccc(O)c(O)c3)oc2=O)c1O` showed an IC50 [3] of 160 nM.

`C/C=C/C[C@@H]1NC(=O)[C@H](CC(C)C)N2C(=O)[C@H](C[C@H](C)[C@@H]2O)N(C)C(=O)[C@H](C)NC(=O)[C@H](Cc2ccc(O)c([N+](=O)[O-])c2)NC(=O)[C@H](CC(C)C)N(C)C(=O)[C@H](Cc2cn(C(C)(C)[C@H]3CO3)c3ccccc23)NC1=O` gave an MIC [4] of 0.12 µM (≈ 0.125 µg/mL).

Compound `CCCCCCCc1cc(O)c(CCCCCC)c(=O)o1` [PSEUDOPYRONINES B] has an MIC [5] of 2.65 to 5.31 µM (≈ 0.78 to 1.56 µg/mL) and an inhibition [6] of 12%.

Work on `C1=C2CCCC/C=C\C=C\CCN3CC[C@@H]4[C@H](CCCCCC/C=C\C=C/CCN(C2)C[C@H]14)C3` (relative stereo) [HALICYCLAMINE A] yielded an MIC [7] of 2.16 to 10.8 µM (≈ 1 to 5.01 µg/mL) and an MIC [8] of 2.16 to 10.8 µM (≈ 1 to 5.01 µg/mL).

`CC[C@H](C)/C=C(C)/C=C/C1=CC2=C(Cl)C(=O)[C@](C)(OC(C)=O)C(=O)C2=CO1` [SCLEROTIORIN] gave an IC50 [9] of 76500 nM.

With `CCCCCC(=O)c1c(O)cc(CCCCC)oc1=O` the MIC [5] was 2.79 µM (≈ 0.782 µg/mL) and the inhibition [6] was 68%.

Work on `CCCCCCC[C@@H]1C[C@@H]2CCC3=C(C(=O)OC(C)CCCCCC[C@@H]4C[C@@H]5CC[C@@H]6C[C@H](C)NC(=N4)N65)C(C)N=C(N1)N32` (stereo not given in full) yielded an MIC [10] of 5.23 µM (≈ 3.18 µg/mL).

`CCC(C)C(=O)N[C@H](Cc1ccccc1)C(=O)NC1C(=O)N[C@H](CC(C)C)C(=O)N[C@H](Cc2ccccc2)C(=O)N[C@H](CC(C)C)C(=O)N[C@H]([C@H](C)O)C(=O)N[C@@H](CO)C(=O)O[C@@H]1C` (stereo not given in full) showed an inhibition at 12 µg/mL [11] of 83%.

In the case of `C=CC(C)(C)n1cc(C[C@@H]2NC(=O)[C@H](C/C=C/C)NC(=O)[C@H](CC(C)C)N3C(=O)[C@H](C[C@H](C)[C@H]3O)N(C)C(=O)[C@H](C)NC(=O)[C@H](Cc3ccc(O)c([N+](=O)[O-])c3)NC(=O)[C@H](CC(C)C)N(C)C2=O)c2ccccc21`, the MIC [1] is reported as 0.0098 µM (≈ 0.0101 µg/mL).

For `CN1C(=O)[C@]23CC4=CC=C[C@H](O)[C@H]4N2C(=O)[C@@]1(CO)SS3` [GLIOTOXIN], the MIC [12] was < 0.03 µM.

`C[C@@H]1C[C@H](C)C(=O)/C=C/[C@@H]2[C@@H](O)[C@H]3OC4=C(C(=O)O[C@@]42C[C@H]3C)C1=O` (stereo in doubt; (-)-145) showed an MIC ([2]; Mycobacterium tuberculosis, H37Rv, read-out: MIC) of 3.6 µM (≈ 1.25 µg/mL).

For `CC(=O)c1cc(C)c(O)c(CC2=C(C)C(=O)C(O)=C(C)C2=O)c1O`, the IC50 [3] was 1370 nM.

For `COc1cc(OC)c2c(O)c3c(=O)cc(C)oc3c(-c3c4cc(O)cc(OC)c4c(O)c4c(=O)cc(C)oc34)c2c1`, the zone of inhibition at 40 µg/disc [13] was 11 mm.

Compound `C/C=C1\NC(=O)[C@H](Cc2ccccc2)NC(=O)[C@@H](C(C)C)NC(=O)[C@@H]([C@@H](C)CC)NC(=O)[C@H](NC(=O)[C@H](NC(=O)[C@H](CCCN)NC(=O)[C@H]2CCCN2C(=O)[C@H](NC(=O)[C@@H](NC(=O)[C@@H](NC(=O)[C@H](NC(=O)CCCC(C)C)C(C)C)[C@@H](C)O)C(C)C)C(C)C)[C@@H](C)CC)[C@@H](C)OC(=O)[C@H](C(C)C)NC1=O` has an inhibition at 12 µg/mL [11] of 67%.

In the case of `C/C=C/C[C@@H]1NC(=O)[C@H](CC(C)C)N2C(=O)[C@H](C[C@H](C)[C@H]2O)N(C)C(=O)[C@H](C)NC(=O)[C@H](Cc2ccc(O)c([N+](=O)[O-])c2)NC(=O)[C@H](CC(C)C)N(C)C(=O)[C@H](Cc2cn(C(C)(C)[C@H]3CO3)c3ccccc23)NC1=O`, the MIC [4] is reported as 0.12 µM (≈ 0.125 µg/mL).

— ChEMBL document CHEMBL4400517, “Marine natural products as potential anti-tubercular agents” (Eur J Med Chem, 2019)
